In general, IC50 refers to the midpoint of a concentration-inhibition curve. As a reminder, the EC50 is the concentration giving half of the maximal effect. The Tmax is the time from dosing to the highest level. As a reminder, the MRT is a mean duration of stay, worked out from the concentration-time curve.

Like-named read-outs stand apart in the source and are kept apart here.

The target in series [1] is T1, dopamine D3 receptor (Homo sapiens, UniProt P35462).
T1 construct: purchased PerkinElmer ES-173-M400UA
T1 sequence (P35462 whole entry): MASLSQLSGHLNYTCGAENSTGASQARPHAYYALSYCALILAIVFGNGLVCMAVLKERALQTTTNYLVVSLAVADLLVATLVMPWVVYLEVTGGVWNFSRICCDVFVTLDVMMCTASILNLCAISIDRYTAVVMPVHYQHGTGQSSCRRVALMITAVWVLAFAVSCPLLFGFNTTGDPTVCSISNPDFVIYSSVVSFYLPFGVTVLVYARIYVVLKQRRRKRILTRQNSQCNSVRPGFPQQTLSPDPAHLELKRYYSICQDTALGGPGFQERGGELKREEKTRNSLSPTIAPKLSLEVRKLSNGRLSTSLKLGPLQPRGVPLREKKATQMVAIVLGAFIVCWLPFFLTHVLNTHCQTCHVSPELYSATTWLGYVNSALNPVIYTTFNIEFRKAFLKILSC
In words: Radioligand binding assay, dopamine D3 receptor ([3H]-methylspiperone). The conditions noted are these: Human Dopamine D3 Receptor membrane, [3H]-methylspiperone 0.5 nM. As for the experimental part:
Determination of the binding ability of the compounds of the present invention to dopamine D3 receptor
The objective of this test example is to determine the affinity of the compounds for dopamine D3 receptor.
Experimental buffer: 50 mM Tris-HCl pH 7.4, 10 mm MgCl2; washing liquor: 50 mM Tris-HCl pH 7.4, stored at 4°C; 0.5% PEI solution: 0.5 g PEI dissolved in 100 mL ddH2O, 4°C storage of spare.
(§1) 5 µL of the test compounds (0.005 nM to 100 nM, 10 concentrations in total) and 100 µL of buffer were added to a 96-well assay plate. 1 µL of cell membrane and 300 µL of buffer were added to each well, and the plate was shaken at 600 rpm for 5 minutes. 100 µL of a mixed solution of buffer and [^3H]-methylspiperone (final concentration of 0.5 nM) was added to the reaction system per well, and the plate was shaken at 600 rpm for 5 minutes and incubated at 27°C for 30 min. The UNIFII,TER-96 GF/B filter plate pre-incubated with 0.5% PEI for 1 h was washed twice with the buffer (1 mL/well). The cell membrane suspension was added to the […]-96 GF/B filter plate, washed 4 times, and incubated at 55°C for 10 min. 40 µL of ULTIMA GOLD was added to each well, and liquid scintillation counting was carried out.
(§2) The CPM (Counts per minute) values were determined by TopCount. […] The 10 concentrations of the compound were from 100 nM to 0.005 nM after 3-fold dilution of the reaction system. The percent inhibition rate and ten-point concentration data were fitted to the parametric nonlinear logistic equation by using GraphPad prism to calculate the IC50 values of the compound.

The target of series [2] is T2, D3 receptor (Homo sapiens, UniProt P35462).
T2 construct: expressed in transfected cells
T2 sequence (P35462 whole entry): as above
Put plainly: cAMP content in cells stably expressing D3 receptors (CHO-D3, forskolin, HTRF). It is filed as cell-based. How it is done:
Determination of the effect of the compounds of the present invention on cAMP content in cells stably expressing D3 receptors
To determine the activation effect of the compounds on D3 receptor.
• 1. Preparation of the buffer: 1* HBSS + 20mM HEPES + 0.1% BSA + 500 µM IBMX. Complete medium: Ham's F12K + 10% fetal bovine serum +1* penicillin-streptomycin + 400 µg/mL G418. • 2. CHO-D3 cells were cultured in the complete medium at 37°C, 5% CO2. After TrypLE digestion, the cells were resuspended in the experimental buffer, and seeded into a 384-well cell culture plate at a seeding density of 8000 cells per well. • 3. The experimental buffer (1*HBSS, 0.1% BSA, 20 mM HEPES and 500 µM IBMX) was prepared. The compound was diluted with the buffer. 2.5 µL of the compound solution was added to each well, and the plate was incubated at 37°C for 10 minutes. The forskolin was diluted to 8 µM (8*) with the experimental buffer. 2.5 µL of the diluted 8* forskolin was added, and the plate was incubated at 37°C for 30 minutes. cAMP-d2 and Anti-cAMP-Eu^3+ were thawed, and diluted by 20-fold with the lysis buffer. 10 µL of cAMP-d2 was added to the experimental well, followed by the addition of 10 µL of Anti-cAMP-Eu^3+. The reaction plate was centrifuged at 200 g for 30 s at room temperature, and left to stand at 25°C for 1 h. Data was collected using Envision.
(In TR-FRET formats the signal depends on donor and acceptor labels being close together.)

Series [3] has as its target T3, 5-HT2A receptor (Homo sapiens, UniProt P28223). In words: Radioligand binding assay, 5-HT2A receptor ([3H]-Ketanserin). Details: purchased PerkinElmer. The conditions noted are these: Human 5-HT2A Receptor membrane, [3H]-Ketanserin 2 nM; read-out: 5HT-2A Binding IC50. As for the experimental part: Determination of the binding ability of the compounds of the
present invention to 5-HT2A receptor
The objective of this test example is to determine the affinity of the compounds for 5-HT2A receptor.
Experimental buffer: 50 mM Tris-HCl pH 7.4, 4 mM CaCl2; washing liquor: 50 mM Tris-HCl pH 7.4, stored at 4°C; 0.5% PEI solution: 0.5 g PEI dissolved in 100 mL ddH2O, 4°C storage of spare.
as §1, with “plate. 1.5” for “plate. 1”, “and [^3H]-Ketanserin” for “and [^3H]-methylspiperone”, “of 2” for “of 0.5”, “The […]-96” for “The UNIFII,TER-96”
as §2

Series [4] has as its target T3, 5-HT2A receptor. In words: Calcium ion mobility in cells stably expressing 5-HT2A receptors (Flp-In-CHO-5HT2A, FLIPR). The format is cell-based. Details: expressed in transfected cells. The conditions noted are these: Flp-In-CHO-5HT2A stable pool, 5HT stimulation. As for the experimental part: Determination of the effect of the compounds of the present invention on calcium ion mobility in cells stably expressing 5-HT2A receptors
To determine the inhibitory effect of the compounds on 5-HT2A receptor.
• 1) Preparation of the buffer: 1 x HBSS, 20 mM HEPES, 2.5 mM probenecid (probenecid was 400 mM stock in 1 M NaOH), 0.1% BSA. Probenecid and BSA were added fresh on the day of the experiment. Experimental buffers include dye buffer and compound dilution buffer. • 2) Cell culture medium: Ham's F-12K + 10% fetal bovine serum + 600 µg/ml hygromycin B + 1* penicillin-streptomycin. Seeding medium: Ham's F-12K + 10% dialysis serum; Assay buffer: 1 x HBSS + 20 mM HEPES; Cell line: Flp-In-CHO-5HT2A stable pool. • 3) The cells were cultured in the complete medium at 37°C, 5% CO2 to 70%-90% confluency. The cells were digested with TrypLE, seeded to the 384-well assay plate at a density of 1 × 10^4 cells/well, and incubated for 16 to 24 hours (at least overnight). • 4) 20X Component A was thawed to room temperature, diluted to 2X working concentration (containing 5mM Probenecid) with the assay buffer, and placed at room temperature for later use. • 5) The cell culture plate was taken out and left to stand at room temperature for 10 min. […] 10 µl of diluted 5HT was add to each experimental well using FLIPR Tetra, and the values were read.
The calcium signal values were determined by FLIPR. The calculated output for each sampling time point in the experiment was the ratio of the 340/510 nm wavelength signals to 380/510 nm wavelength signals. The maximum minus minimum calculation was derived from the ratio signal curve. The percent inhibition rate and ten-point concentration data were fitted to the parametric nonlinear logistic equation by using GraphPad prism to calculate the IC50 values of the compound.

A short description of series [5]: Pharmacokinetic assay in Balb/c mice (plasma and brain tissue). It is filed as in vivo. The conditions noted are these: male, mouse, po, p.o. 5 mg/kg; for AUC(0-t): read-out: Area under curve AUC0-t; for Tmax: read-out: Peak time tmax; for Cmax: read-out: Plasma concentration Cmax; for AUC(0-inf): read-out: Area under curve AUC0-∞; for MRT: read-out: Average residence time MRT; for half-life: read-out: Half life t1/2 (converted). As for the experimental part: Balb/c mice were used as test animals. The pharmacokinetic behavior in mouse body (plasma and brain tissue) of the compounds of Examples of the present invention was studied at an oral administration dose of 5 mg/kg.
Compounds of the Examples of the present invention, prepared by the applicant.
Male Balb/c mice (12 mice per group), purchased from Shanghai Jiesijie Laboratory Animal Co., LTD, with Certificate No.: SCXK (Shanghai) 2013-0006 N0.311620400001794.
The test compound was dissolved in 0.5% CMC-Na (1% Tween80) by sonication to formulate a clear solution or homogeneous suspension.
After an overnight fast, male Balb/c mice (12 mice per group) were administered p.o. with the test compound at an administration dose of 5 mg/kg and an administration volume of 10 mL/kg.
0.2 mL of blood was taken from the heart of the mouse before administration and at 1, 2, 4, 8 and 24 hours after administration, and the mice were sacrificed with CO2. The samples were stored in EDTA-K2 tubes, and centrifuged for 6 minutes at 4°C, 6000 rpm to separate the plasma. The plasma samples were stored at -80°C. Whole brain tissue was taken out, weighed, placed in a 2 mL centrifuge tube, and stored at -80°C.
• 1) 160 µL of acetonitrile was added to 40 µL of the plasma sample for precipitation, and then the mixture was centrifuged for 5 to 20 minutes at 3500 × g. • 2) 90 µL of acetonitrile containing internal standard (100 ng/mL) was added to 30 µL of the plasma and brain homogenate sample for precipitation, and then the mixture was centrifuged for 8 minutes at 13000 rpm. • 3) 70 µL of water was added to 70 µL of the treated supernatant and mixed by vortex for 10 minutes. 20 µL of the supernatant was taken to analyze the concentration of the test compound by LC/MS/MS. LC/MS/MS analytical instrument: AB Sciex API 4000 Qtrap.
• Liquid chromatography condition: Shimadzu LC-20AD pump • Chromatographic column: Agilent ZORBAX XDB-C18 (50×2.1 mm, 3.5 µm); Mobile phase: Eluent A was 0.1% formic acid in water, and Eluent B was acetonitrile • Flow rate: 0.4 mL/min • Elution time: 0-4.0 minutes, the eluent is as follows:
The main parameters of pharmacokinetics were calculated by WinNonlin 6.1. Table 17: Experimental results of pharmacokinetic assay in mice

T3 sequence (P28223 whole entry): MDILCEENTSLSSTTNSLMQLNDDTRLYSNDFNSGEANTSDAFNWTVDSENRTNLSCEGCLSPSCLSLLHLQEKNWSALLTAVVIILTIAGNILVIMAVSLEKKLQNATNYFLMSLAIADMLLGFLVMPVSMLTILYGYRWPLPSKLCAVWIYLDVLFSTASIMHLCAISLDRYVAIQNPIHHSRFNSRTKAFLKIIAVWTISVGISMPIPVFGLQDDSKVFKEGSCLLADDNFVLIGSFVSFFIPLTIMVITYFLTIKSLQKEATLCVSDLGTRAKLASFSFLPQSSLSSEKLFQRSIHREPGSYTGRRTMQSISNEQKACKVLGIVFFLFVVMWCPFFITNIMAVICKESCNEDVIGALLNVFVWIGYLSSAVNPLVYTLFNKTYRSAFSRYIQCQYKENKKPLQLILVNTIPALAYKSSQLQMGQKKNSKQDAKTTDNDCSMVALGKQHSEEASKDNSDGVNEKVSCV

For `CC(C)(O)C(=O)NC1CC(CCN2CCN(c3cccc(Cl)c3Cl)CC2)C1` (stereo not shown) [Example 4A], the results for the IC50 in series [1], in series [3] and in series [4] were 0.95 nM, 41.5 nM and 39 nM, respectively. The compound also displayed a half-maximal effective concentration (EC50) in series [2] of 0.4 nM.
`O=C(N[C@H]1C[C@@H](CCN2CCN(c3cccc(Cl)c3Cl)CC2)C1)C1(O)CC1` [Example 6B, N-(Cis-3-(2-(4-(2,3-dichlorophenyl)piperazin-1-yl)ethyl)cyclobutyl)-1-hydroxycyclo propane-1-carboxamide] gave an IC50 in series [1] of 4.37 nM. In addition, in series [5] (Brain), the AUC(0-t) was determined as 0.9 µg·h/mL, the time to peak (Tmax) was found to be 1 h and the Cmax worked out at 0.361 µg/mL. Moreover, in series [5] (Plasma), the AUC(0-t) was determined as 2.25 µg·h/mL, the AUC(0-inf) was 2.33 µg·h/mL, the mean residence time (MRT) amounted to 2.3 h and the half-life is 1.6 h. Moreover, in series [5] (Plasma), the Tmax was 0.5 h and the Cmax amounted to 0.961 µg/mL. The half-maximal inhibitory concentration (IC50) in series [3] was determined as 48.4 nM. In addition, the IC50 in series [4] stood at 39 nM.
As for `O=S(=O)(NC1CC(CCN2CCN(c3cccc(Cl)c3Cl)CC2)C1)C1CC1` (stereo not shown) [Example 11, N-(3-(2-(4-(2,3-Dichlorophenyl)piperazin-1-yl)ethyl)cyclobutyl)cyclopropanesulfon amide], the concentration for half-maximal inhibition (IC50) amounted to 0.62 nM in series [1] and 44 nM in series [3].
Regarding `C[C@@H]1CN(CCC2CC(NC(=O)C(C)(C)O)C2)CCN1c1cccc(Cl)c1Cl` (stereo partly drawn) [Example 22, (R)-N-(3-(2-(4-(2,3-Dichlorophenyl)-3-methylpiperazin-1-yl)ethyl)cyclobutyl)-2-hy droxy-2-methylpropanamide], the IC50 in series [1] worked out at 2.78 nM; in series [3], 9.63 nM. This compound gave an EC50 in series [2] of 0.4 nM.
`CCN(C)C(=O)NC1CC(CCN2CCN(c3cccc4sccc34)CC2)C1` (stereo not shown) [Example 24, 3-(3-(2-(4-(Benzo[b]thiophen-4-yl)piperazin-1-yl)ethyl)cyclobutyl)-1-ethyl-1-methy lurea]: in series [1], the half-inhibitory concentration (IC50) was 1.13 nM. This compound gave an EC50 in series [2] of 0.9 nM. For the same compound, in series [5] (Brain), the AUC(0-t) was 2.19 µg·h/mL, the AUC(0-inf) turned out to be 2.31 µg·h/mL, the time to peak (Tmax) stood at 1 h and the Cmax was 0.339 µg/mL. Further, in series [5] (Plasma), the AUC(0-t) is 1.48 µg·h/mL, the AUC(0-inf) was 2 µg·h/mL, the MRT was found to be 5.7 h and the half-life was 3.4 h. Further, in series [5] (Plasma), the time of peak concentration (Tmax) is 0.5 h and the Cmax was determined as 0.369 µg/mL. In series [3], the half-inhibitory concentration (IC50) stood at 6.39 nM.
As to `O=C(NC1CC(CCN2CCCN(c3cccc(Cl)c3Cl)CC2)C1)c1ccco1` (stereo not shown) [Example 25, N-(3-(2-(4-(2,3-Dichlorophenyl)-1,4-diazepan-1-yl)ethyl)cyclobutyl)furan-2-carbox amide], the 50% inhibitory concentration (IC50) in series [1] turned out to be 0.79 nM. Further, in series [5] (Brain), the AUC(0-t) was found to be 1.54 µg·h/mL, the AUC(0-inf) was 1.65 µg·h/mL, the time of peak concentration (Tmax) is 1 h and the Cmax is 0.162 µg/mL. In addition, in series [5] (Plasma), the AUC(0-t) was determined as 0.24 µg·h/mL, the AUC(0-inf) came to 0.297 µg·h/mL, the MRT amounted to 5.1 h and the half-life is 3.25 h. For the same compound, in series [5] (Plasma), the time to peak (Tmax) turned out to be 1 h and the Cmax is 0.0497 µg/mL. Further, the IC50 in series [3] is 6.35 nM.

The values are drawn from patent publication EP4332093A1, “SALT CONTAINING PIPERAZINE POLYCYCLIC DERIVATIVE, CRYSTAL FORM THEREOF, PREPARATION METHOD THEREFOR, AND USE THEREOF” (Shanghai Hansoh Biomedical Co., Ltd., priority 2021, dated 2022).
